Counter-ions that a name gives are not always drawn.
Columns and labels:
[1] = target: T1, AlaRS^R329H (Homo sapiens, UniProt P49588, R329H); assay: ATP consumption assay (enzyme inhibition); format: biochemical; conditions: 1 μM AlaRS^R329H at 20 μM compounds; vs DMSO control
T1 construct: made in house; host or cells: E. coli BL21 (DE3), pET-21a
T1 sequence (P49588 1-968 R329H): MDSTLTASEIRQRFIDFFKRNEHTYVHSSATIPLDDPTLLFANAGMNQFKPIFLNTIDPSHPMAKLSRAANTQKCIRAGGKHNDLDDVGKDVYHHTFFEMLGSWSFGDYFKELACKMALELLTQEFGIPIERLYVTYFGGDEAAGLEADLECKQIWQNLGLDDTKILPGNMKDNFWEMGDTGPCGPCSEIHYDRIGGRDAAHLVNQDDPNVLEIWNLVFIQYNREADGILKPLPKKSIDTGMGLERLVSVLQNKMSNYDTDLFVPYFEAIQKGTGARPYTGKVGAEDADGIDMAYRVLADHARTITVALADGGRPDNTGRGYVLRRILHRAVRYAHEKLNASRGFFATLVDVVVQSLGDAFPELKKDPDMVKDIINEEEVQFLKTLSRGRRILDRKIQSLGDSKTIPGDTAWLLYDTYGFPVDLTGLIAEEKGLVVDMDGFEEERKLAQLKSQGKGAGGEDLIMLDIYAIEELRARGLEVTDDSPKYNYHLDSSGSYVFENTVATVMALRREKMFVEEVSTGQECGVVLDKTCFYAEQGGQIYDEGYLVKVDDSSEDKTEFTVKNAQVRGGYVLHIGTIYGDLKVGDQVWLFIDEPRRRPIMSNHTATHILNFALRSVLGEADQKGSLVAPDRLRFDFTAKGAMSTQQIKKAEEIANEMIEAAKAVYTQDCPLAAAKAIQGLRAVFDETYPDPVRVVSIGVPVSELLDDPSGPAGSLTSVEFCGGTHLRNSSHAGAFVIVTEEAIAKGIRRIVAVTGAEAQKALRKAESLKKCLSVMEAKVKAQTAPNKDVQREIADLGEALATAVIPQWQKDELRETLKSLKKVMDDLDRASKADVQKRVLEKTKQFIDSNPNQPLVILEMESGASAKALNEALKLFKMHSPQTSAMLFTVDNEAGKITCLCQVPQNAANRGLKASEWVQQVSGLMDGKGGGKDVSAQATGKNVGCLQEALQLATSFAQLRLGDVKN
Method: We further investigated the effects of the four small molecules on the enzymatic activity of the AlaRS^R329H protein using an ATP consumption assay. All four compounds affected enzymatic activity to varying degrees. […] The ATP consumption assay was used to evaluate the enzymatic inhibitory activity of the compounds. A 30 μL reaction mixture, containing 1 μM AlaRS mutants, 25 μM ATP, 50 μM L-alanine, 30 mM HEPES (pH 7.5), 150 mM NaCl, 30 mM KCl, 40 mM MgCl2, 0.1% BSA, and varying concentrations of Tanshinone I, was incubated at room temperature for 15 min. After incubation, 10 μL of the mixture was transferred to a 384-well microplate, and AlaRS mutant activity was measured by adding 10 μL of the ATP Assay Kit (#S0026, Beyotime, Shanghai, China). Luminescence was recorded using a Synergy HTX multimode microplate reader (BioTek Inc., Winooski, VT, USA). The inhibitory rate was calculated from three independent assays to ensure the accurate assessment of Tanshinone I’s inhibitory activity. The experiment was repeated three times.

[2] = target: T1, AlaRS^R329H; assay: Proteolytic digestion assay (trypsin, SDS-PAGE); conditions: 3 h
Method: To delve deeper into the impact of selected small molecules on the structural conformation of AlaRS^R329H proteins, a series of proteolysis experiments were conducted. The small molecules were incubated with AlaRS^R329H proteins at room temperature for three hours, followed by SDS-PAGE analysis to evaluate their effects on the distribution of the digestion fragments. […] The AlaRS^R329H proteins (in the presence and absence of Atazanavir sulfate, Tanshinone I, Hederacolchiside A1, and Hexylresorcinol) were incubated with trypsin at different concentrations for 3 h before the reactions were quenched, and the products were separated by SDS-PAGE.

[3] = target: T1, AlaRS^R329H; assay: Thermal shift assay (TSA); format: binding; conditions: positive hit = shift of more than 2.5 °C
From the text: In this assay, with increasing temperatures, the protein undergoes thermal unfolding, exposing its hydrophobic core. Subsequently, a fluorescent dye binds to these hydrophobic regions, becoming unquenched. Fluorescence is closely monitored, and the midpoint of the protein unfolding transition is designated as the Tm. Ligand binding frequently influences protein thermal stability during denaturation. Thus, the ligand binding affinity of any potential inhibitor can be gauged by evaluating the shift in the Tm. In this experiment, we screened a library of 2000 small molecules (Table S1) and classified as positive hits those that caused a shift in the Tm of the mutant protein of more than 2.5 °C. From the TSA, we identified four small molecules that met this criterion (Figure 2A, Table 1). Specifically, Atazanavir sulfate caused a shift of 4.0 °C, Tanshinone I a shift of 3.1 °C, Hederacolchiside A1 a shift of 4.3 °C, and Hexylresorcinol a shift of 5.5 °C (Figure 2B). To assess the impact of small molecules on the thermal stability of mutant proteins, thermal shift assays were performed using a […] (Applied Biosystems, Waltham, MA, USA) with the Protein Thermal Shift™ Kit dye (Thermo Fisher Scientific, Waltham, MA, USA). Each well of a 96-well Optical Reaction Plate (Applied Biosystems) contained 14 μL of thermal shift buffer, 2 μL of diluted thermal shift dye (8×), 2 μL of a 1 mM small molecule solution, and 2 μL of 1 mg/mL protein. Plates were incubated at 4 °C for 1 h before being heated from 25 °C to 95 °C at 1 °C/min. The fluorescence signal of SYPRO orange (excitation/emission: 490/530 nm) was recorded at 30 s intervals to monitor protein denaturation. The melting temperature (Tm), defined as the midpoint of the unfolding transition, was determined from the fluorescence–temperature curve. ΔTm was calculated as the difference in Tm between AlaRS^R329H treated with compounds and the control. Experiments were conducted in triplicate for accuracy. The experiment was repeated three times.

[4] = target: T1, AlaRS^R329H; assay: Biolayer interferometry (BLI); format: binding; conditions: immobilized AlaRS^R329H, 40, 20, 10, 5, 2.5 μM, mean ± SD, triplicate
From the text: To quantitatively analyze the binding affinity between the small molecules and the CMT mutant proteins, we performed BLI analysis on the selected candidates. BLI offers direct measurements of drug–protein binding kinetics, including key parameters such as the equilibrium dissociation constant (KD), association rate (Kon), and dissociation rate (Koff). This analysis provided key insights into the binding affinities of the four small molecules with the mutant protein AlaRS^R329H. […] To further quantify the binding of small molecules to mutant proteins, binding experiments with AlaRS^R329H proteins and small molecules were conducted using an Octet R8 system (ForteBio, Fremont, CA, USA). Purified His-tagged AlaRS^R329H proteins (500 μg/mL) were captured on Ni-NTA biosensors (ForteBio, Fremont, CA, USA), achieving a saturation response of 4–5 nm after 300 s. The biosensors were then transferred to Octet buffer (PBS with 0.01% Tween 20) for 180 s to remove loosely bound, nonspecific proteins and to establish a stable baseline. Following this, the sensors were immersed in diluted Tanshinone I (2.5–100 μM in assay buffer) for 120 s to record the association signal, and then transferred back into Octet buffer to monitor the dissociation signal for 120 s. Reference wells containing buffer instead of Tanshinone I were included to correct for baseline shifts. Additionally, a parallel set of Ni-NTA sensors in buffer served as negative reference controls to account for nonspecific binding of the compounds to the biosensor surface. The data were processed using a double reference subtraction protocol to eliminate nonspecific signals, background noise, and signal drifts caused by biosensor variability. All assays were performed in 96-well black plates with a total volume of 200 μL per well at 30 °C. Data analysis, including correction and curve fitting, was carried out using Octet® Analysis Studio 12.2.2.26. The experiment was repeated three times.

COC(=O)N[C@H](C(=O)N[C@@H](Cc1ccccc1)[C@@H](O)CN(Cc1ccc(-c2ccccn2)cc1)NC(=O)[C@@H](NC(=O)OC)C(C)(C)C)C(C)(C)C [Atazanavir sulfate, reference compound]
Relative Activity (relative enzyme activity of the first step) [1]: 96.8%
Effect on distribution of digestion fragments / conformation [2]: minimal effects on the distribution of digestion fragments
ΔTm (shift between the Tm values of AlaRS^R329H with and without compounds) [3]: 4.0 °C
Kd [4]: 28.6 ± 9.9 µM

C[C@@H]1O[C@@H](O[C@H]2[C@H](O[C@H]3CC[C@]4(C)[C@H]5CC=C6[C@@H]7CC(C)(C)CC[C@]7(C(=O)O)CC[C@@]6(C)[C@]5(C)CC[C@H]4C3(C)C)OC[C@H](O[C@@H]3O[C@H](CO)[C@@H](O)[C@H](O)[C@H]3O)[C@@H]2O)[C@H](O)[C@H](O)[C@H]1O [Hederacolchiside A1]
Relative Activity (relative enzyme activity of the first step) [1]: 69.6%
Effect on distribution of digestion fragments / conformation [2]: slight conformational change
ΔTm (shift between the Tm values of AlaRS^R329H with and without compounds) [3]: 4.3 °C
Kd [4]: 10.1 ± 0.5 µM

CCCCCCc1ccc(O)cc1O [Hexylresorcinol, reference compound]
Relative Activity (relative enzyme activity of the first step) [1]: 79.8%
Effect on distribution of digestion fragments / conformation [2]: minimal effects on the distribution of digestion fragments
Kd [4]: 26.3 ± 9.9 µM

Source: publication PMC11509018, “Evaluation of the Role of Tanshinone I in an In Vitro System of Charcot-Marie-Tooth Disease Type 2N” (International Journal of Molecular Sciences, 2024)
